Measurements: patent US9321717B2, “Process for rapid identification and preparation of crystalline forms” (Allergan, Inc., priority 2011, dated 2016)
Entries after “also recorded” stand apart in the source; their conditions may differ.

What was measured:
[1] = model compounds; * = low energy form; cited from earlier work
[2] = Form risk assessment (FRA) crystallization workflow with XRPD form identification; format: physicochemical; details: for FRA_EV: forms from evaporation; for FRA_TC: forms from thermocycled slurrying; for Forms Found by FRA: model compounds, crystalline, used as received, * = low energy form
From the text: However, certain basic elements of the polymorph screening experiments are incorporated, such as solubility estimation, solvent-mediated form transformation, as well as super saturation adjustment by cooling, antisolvent addition, and evaporation, etc. The following procedure outlines the logical steps of performing an FRA experiment: • 1. Determine the physicochemical properties of the starting material (compound as received) • 2. Estimate the solubilities of the compound in twenty-four solvents with diverse solvent properties. • 3. Design approximately sixteen crystallization experiments with appropriate solvent systems based on the results of the solubility estimations. • 4. Prepare the crystallization samples and examine their solubilities in the sixteen solvent systems at elevated temperature. • 5. Conduct the crystallization experiment according to the designed workflow. • 6. Characterize and analyze the materials isolated from the crystallization experiments.
The solubility of the API is visually estimated by the “dynamic method” in each of the twenty-four solvents. This method is used to quickly bin the solvents into different categories, such as good solvents, poor solvents, and intermediates. The following describes the general procedure of the solubility estimation: • 1. Place weighed amounts of drug in clear glass vials to which incremental volumes (20-500 μL) of solvent are added until the solution turns clear. • 2. Apply brief vortexing after each solvent addition. • 3. Calculate the approximate visual solubility of the drug in a solvent by recording the amount of solvent required to completely dissolve the known weight of drug. The preferred unit of solubility is mg/mL.
The suspensions of the drug substance in a variety of solvent systems will be subjected to temperature-cycled slurrying, which is the primary crystallization method. Sixteen sample slurries for thermo-cycled experiments should be prepared with caution to avoid complete dissolution of the solid at elevated temperatures. For slurry with a single solvent system, the initial composition should have approximately 5-10 times higher concentration than the estimated solubility value at ambient temperature. For slurry in a solvent mixture, a suspension of the compound in the antisolvent should first be prepared and followed by the introduction of the solvent to adjust the solubility. The final antisolvent to solvent volume ratio is typically between 3 and 10. Record the amount of compound initially added and the volumes of added solvent aliquots.
Appendix 1 summarizes the typical temperature programs for each experiment. Usually three heat-cool-heat temperature cycles are used. The initial fast thermocycling runs help preliminarily assessing the dissolution behavior of the samples. The slow thermocycling runs focus on generating crystals and increasing the crystallinity and form purity.
If the sample remains a clear solution after the initial thermocycling, the solution is cooled to induce super saturation. During cooling, the original solution may become supersaturated and further reach the metastable limit when spontaneous crystallization starts. Usually the final temperature is 5° C. and the cooling rate is 0.1° C. per minute to facilitate crystal growth.
If the sample is still a clear solution at 5° C., the sample vial will be transferred into a −20° C. freezer for at least 2-3 days. The sample should be regularly examined by visual inspection and/or polarized light microscope for signs of solid formation.
The antisolvents identified during the initial solubility estimation can be used for adjusting the solubility of the drug substance in the primary solvent. The combination of a solvent with a miscible antisolvent provides a continuous solvent space, which potentially maximizes the possibility of capturing a crystalline form. […]

FRA_EV [2]	FRA_TC [2]	Forms Found by FRA [2]	forms identified or generated by FRA [2]	FRA_AS ([2]; forms from antisolvent addition)	Structure (SMILES)	Reported Forms in the Literature [1]
γ	α, β, γ	α*, β*, γ	–	–	NC(=O)N1c2ccccc2C=Cc2ccccc21 [Carbamazepine (E), Carbamazepine]	α*, β*, γ,; also recorded: dihydrate, solvate
–	I, II, III, IV	I, II, III*, IV*	–	–	Nc1ccc(S(=O)(=O)Nc2nccs2)cc1 [Sulfathiazole]	I, II, III*, IV*, V
I, II	I, II,; also recorded: hydrate	I*, II, hydrate	–	–	CN1C(C(=O)Nc2ccccn2)=C(O)c2ccccc2S1(=O)=O [Piroxicam]	I*, II, III, hydrate
–	A, B, C	A*, B, C	–	–	COC(=O)Nc1nc2ccc(C(=O)c3ccccc3)cc2[nH]1 [Mebendazole]	A*, B, C
I, IV,; also recorded: solvate	I, II, III, IV	–	–	–	O=C(O)c1cc(-c2ccc(F)cc2F)ccc1O [Diflunisal]	–

Continued, compound first:

Structure (SMILES)	FRA_EV [2]	FRA_TC [2]	Forms Found by FRA [2]	forms identified or generated by FRA [2]	FRA_AS ([2]; forms from antisolvent addition)	Reported Forms in the Literature [1]
CCNC(=O)CCC/C=C\C[C@@H]1[C@@H](/C=C/[C@@H](O)CCc2ccccc2)[C@H](O)C[C@@H]1O [bimatoprost, Bimatoprost]	–	–	–	capture both forms	–	–
COc1ccc2c(c1)c(CC(=O)O)c(C)n2C(=O)c1ccc(Cl)cc1 [Indomethacin]	–	α, β, γ	α, β, γ*	–	–	α, β, γ*
NC(N)=Nc1nc(CSCCC(N)=NS(N)(=O)=O)cs1 [Famotidine]	A, C	A, C	A*, B, C; also recorded: (new form)	–	–	A*, B
O=C(c1ccccc1)c1ccc2n1CCC2C(=O)O (stereo not shown) [Ketorolac free acid]	–	–	I*, solvate	–	solvate	I*, II, III, solvate
CCCCCCCCCCCCCCCCCC(=O)O [Stearic acid (E), Stearic acid]	–	B, C	B*, C*	both enantiotropic polymorphs	–	A, B*, C*, E
